From PubChem BioAssay (NCI)
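At the GI50, growth is halved. The concentration for full growth arrest is given as TGI.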

How the values were obtained:
Assay in all cases: growth of human tumour cells (NCI), 384-well format
HL-60(TB) leukemia = system: HL-60(TB) leukemia
SK-OV-3 ovarian = system: SK-OV-3 ovarian
IGROV1 ovarian = system: IGROV1 ovarian
HCT-116 colon = system: HCT-116 colon
SN12C renal = system: SN12C renal
A498 renal = system: A498 renal
MCF7 breast = system: MCF7 breast
NCI-H460 NSCLC = system: NCI-H460 NSCLC
SF-539 CNS = system: SF-539 CNS
HT29 colon = system: HT29 colon
OVCAR-8 ovarian = system: OVCAR-8 ovarian
NCI-H23 lung = system: NCI-H23 lung
COLO 205 colon = system: COLO 205 colon
OVCAR-4 ovarian = system: OVCAR-4 ovarian
K-562 leukemia = system: K-562 leukemia
NCI-H322M lung = system: NCI-H322M lung
UO-31 renal = system: UO-31 renal
SF-268 CNS = system: SF-268 CNS
TK-10 renal = system: TK-10 renal
SK-MEL-28 melanoma = system: SK-MEL-28 melanoma
SK-MEL-5 melanoma = system: SK-MEL-5 melanoma
MDA-MB-231 breast = system: MDA-MB-231 breast
EKVX NSCLC = system: EKVX NSCLC
OVCAR-3 ovarian = system: OVCAR-3 ovarian
HOP-92 NSCLC = system: HOP-92 NSCLC
HOP-62 NSCLC = system: HOP-62 NSCLC
CAKI-1 renal = system: CAKI-1 renal
786-0 renal = system: 786-0 renal
NCI-H522 lung = system: NCI-H522 lung
PC-3 prostate = system: PC-3 prostate
CCRF-CEM leukemia = system: CCRF-CEM leukemia
MOLT-4 leukemia = system: MOLT-4 leukemia
UACC-62 melanoma = system: UACC-62 melanoma
SR leukemia = system: SR leukemia
RXF 393 renal = system: RXF 393 renal
RPMI-8226 leukemia = system: RPMI-8226 leukemia
KM12 colon = system: KM12 colon
HS 578T breast = system: HS 578T breast
DU-145 prostate = system: DU-145 prostate
SK-MEL-2 melanoma = system: SK-MEL-2 melanoma
SW-620 colon = system: SW-620 colon
OVCAR-5 ovarian = system: OVCAR-5 ovarian
SNB-19 CNS = system: SNB-19 CNS
MDA-MB-468 breast = system: MDA-MB-468 breast
MALME-3M melanoma = system: MALME-3M melanoma
T-47D breast = system: T-47D breast
SNB-75 CNS = system: SNB-75 CNS

## CC(O)[C@H](NC(=O)N[C@@H](CC(N)=O)c1nc(N2CCNCC2)no1)C(=O)O (some centres undefined)
HL-60(TB) leukemia
  GI50: > 100 µM
  TGI: > 100 µM
SK-OV-3 ovarian
  GI50: > 100 µM
  TGI: > 100 µM
IGROV1 ovarian
  GI50: > 100 µM
  TGI: > 100 µM
HCT-116 colon
  GI50: > 100 µM
  TGI: > 100 µM
SN12C renal
  GI50: > 100 µM
  TGI: > 100 µM
A498 renal
  GI50: > 100 µM
  TGI: > 100 µM
MCF7 breast
  GI50: > 100 µM
  TGI: > 100 µM
NCI-H460 NSCLC
  GI50: > 100 µM
  TGI: > 100 µM
SF-539 CNS
  GI50: > 100 µM
  TGI: > 100 µM
HT29 colon
  GI50: > 100 µM
  TGI: > 100 µM
OVCAR-8 ovarian
  GI50: > 100 µM
  TGI: > 100 µM
NCI-H23 lung
  GI50: > 100 µM
  TGI: > 100 µM
COLO 205 colon
  GI50: > 100 µM
  TGI: > 100 µM
OVCAR-4 ovarian
  GI50: > 100 µM
  TGI: > 100 µM
K-562 leukemia
  GI50: > 100 µM
  TGI: > 100 µM
NCI-H322M lung
  GI50: > 100 µM
  TGI: > 100 µM
UO-31 renal
  GI50: > 100 µM
  TGI: > 100 µM
SF-268 CNS
  GI50: > 100 µM
  TGI: > 100 µM
TK-10 renal
  GI50: > 100 µM
  TGI: > 100 µM
SK-MEL-28 melanoma
  GI50: > 100 µM
  TGI: > 100 µM
SK-MEL-5 melanoma
  GI50: > 100 µM
  TGI: > 100 µM
MDA-MB-231 breast
  GI50: > 100 µM
  TGI: > 100 µM
EKVX NSCLC
  GI50: > 100 µM
  TGI: > 100 µM
OVCAR-3 ovarian
  GI50: > 100 µM
  TGI: > 100 µM
HOP-92 NSCLC
  GI50: > 100 µM
  TGI: > 100 µM
HOP-62 NSCLC
  GI50: > 100 µM
  TGI: > 100 µM
CAKI-1 renal
  GI50: > 100 µM
  TGI: > 100 µM
786-0 renal
  GI50: > 100 µM
  TGI: > 100 µM
NCI-H522 lung
  GI50: > 100 µM
  TGI: > 100 µM
PC-3 prostate
  GI50: > 100 µM
  TGI: > 100 µM
CCRF-CEM leukemia
  GI50: > 100 µM
  TGI: > 100 µM
MOLT-4 leukemia
  GI50: > 100 µM
  TGI: > 100 µM
UACC-62 melanoma
  GI50: > 100 µM
  TGI: > 100 µM
SR leukemia
  GI50: > 100 µM
  TGI: > 100 µM
RXF 393 renal
  GI50: > 100 µM
  TGI: > 100 µM
RPMI-8226 leukemia
  GI50: > 100 µM
  TGI: > 100 µM
KM12 colon
  GI50: > 100 µM
  TGI: > 100 µM
HS 578T breast
  GI50: > 100 µM
  TGI: > 100 µM
DU-145 prostate
  GI50: > 100 µM
  TGI: > 100 µM
SK-MEL-2 melanoma
  GI50: > 100 µM
  TGI: > 100 µM
SW-620 colon
  GI50: > 100 µM
  TGI: > 100 µM
OVCAR-5 ovarian
  GI50: > 100 µM
  TGI: > 100 µM
SNB-19 CNS
  GI50: > 100 µM
  TGI: > 100 µM
MDA-MB-468 breast
  GI50: > 100 µM
  TGI: > 100 µM
MALME-3M melanoma
  GI50: > 100 µM
  TGI: > 100 µM
T-47D breast
  GI50: > 100 µM
  TGI: > 100 µM
SNB-75 CNS
  GI50: > 100 µM
  TGI: > 100 µM
